Laboratory results from patent US9944654B2, “Nargenicin compounds and uses thereof as antibacterial agents” (priority 2014, dated 2018).
Values after ≈ are worked out from the molar mass of the structure shown. Read-outs that look alike come from different tables or passages of the source.

Experiments:
[1] = test system: Drug susceptible M. tuberculosis clinical isolates; type: cell-based, Mycobacterium tuberculosis; settings: M. tuberculosis clinical isolates (MTB panel)
[2] = target: T1, S. aureus DnaE (DNA polymerase III α-subunit homolog from Staphylococcus aureus) (Staphylococcus aureus, UniProt Q5HF71); assay: biochemical; type: biochemical
T1 construct: SaDnaE (S. aureus DnaE residues 1-1065); 6xHis (N); made in house; host or cells: E. coli BL21-AI
T1 sequence (Q5HF71 1-1065): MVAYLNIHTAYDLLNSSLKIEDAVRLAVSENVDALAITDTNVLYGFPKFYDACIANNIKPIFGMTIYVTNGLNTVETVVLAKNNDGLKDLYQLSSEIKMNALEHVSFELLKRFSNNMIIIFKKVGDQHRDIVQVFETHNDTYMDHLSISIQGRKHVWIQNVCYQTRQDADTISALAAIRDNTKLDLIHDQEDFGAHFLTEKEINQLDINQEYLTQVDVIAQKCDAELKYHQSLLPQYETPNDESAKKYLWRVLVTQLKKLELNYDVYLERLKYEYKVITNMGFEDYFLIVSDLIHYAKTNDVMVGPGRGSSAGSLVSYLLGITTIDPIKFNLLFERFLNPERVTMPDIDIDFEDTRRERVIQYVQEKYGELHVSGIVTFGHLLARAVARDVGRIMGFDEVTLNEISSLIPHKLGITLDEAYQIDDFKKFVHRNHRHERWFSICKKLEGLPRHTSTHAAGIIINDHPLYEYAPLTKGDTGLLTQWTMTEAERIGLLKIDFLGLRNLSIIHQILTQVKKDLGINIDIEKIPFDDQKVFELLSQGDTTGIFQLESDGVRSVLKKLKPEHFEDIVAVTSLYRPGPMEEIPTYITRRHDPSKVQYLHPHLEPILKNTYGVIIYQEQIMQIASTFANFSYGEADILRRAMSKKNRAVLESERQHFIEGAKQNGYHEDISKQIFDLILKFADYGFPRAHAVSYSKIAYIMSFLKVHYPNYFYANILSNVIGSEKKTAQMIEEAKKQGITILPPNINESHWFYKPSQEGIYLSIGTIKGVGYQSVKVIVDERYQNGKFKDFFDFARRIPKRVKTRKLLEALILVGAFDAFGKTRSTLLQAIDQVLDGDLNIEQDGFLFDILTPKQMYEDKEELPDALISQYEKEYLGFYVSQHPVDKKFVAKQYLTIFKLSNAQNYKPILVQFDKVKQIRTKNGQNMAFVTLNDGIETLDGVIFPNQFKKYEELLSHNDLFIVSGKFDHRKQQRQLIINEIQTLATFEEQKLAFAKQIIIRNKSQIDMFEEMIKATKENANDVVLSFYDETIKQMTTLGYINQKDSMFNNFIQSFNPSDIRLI
How it was run: (§1)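 3H-dTTP (0.011 mM) incorporation into DNase I-activated calf thymus DNA, alongside the other three dNTPs at 0.025 mM, measured by filter counting after TCA precipitation. Reactions ran 30 min at 30° C., started with purified N-His DnaE: 0.8 μg/ml for E. coli, 0.05 μg/ml for S. aureus.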

[3] = test system: Streptococcus pneumoniae MB6357 (CL 2883); assay: Nargenicin antibacterial assay (MIC), S. pneumoniae; type: cell-based; settings: * = some reduction of growth versus control at […]; for MIC: Streptococcus pneumoniae, read-out: S. pneumoniae MB2883 (MIC), Isosensitest broth
[4] = target: T2, E. coli DnaE (DNA polymerase III α-subunit from Escherichia coli) (Escherichia coli, UniProt P10443); assay: In vitro DnaE single enzyme assay (E. coli); type: biochemical
T2 construct: EcDnaE (E. coli DnaE residues 1-1160); 6xHis (N); made in house; host or cells: E. coli BL21(DE3)
T2 sequence (P10443 whole entry, the tested form may be a part): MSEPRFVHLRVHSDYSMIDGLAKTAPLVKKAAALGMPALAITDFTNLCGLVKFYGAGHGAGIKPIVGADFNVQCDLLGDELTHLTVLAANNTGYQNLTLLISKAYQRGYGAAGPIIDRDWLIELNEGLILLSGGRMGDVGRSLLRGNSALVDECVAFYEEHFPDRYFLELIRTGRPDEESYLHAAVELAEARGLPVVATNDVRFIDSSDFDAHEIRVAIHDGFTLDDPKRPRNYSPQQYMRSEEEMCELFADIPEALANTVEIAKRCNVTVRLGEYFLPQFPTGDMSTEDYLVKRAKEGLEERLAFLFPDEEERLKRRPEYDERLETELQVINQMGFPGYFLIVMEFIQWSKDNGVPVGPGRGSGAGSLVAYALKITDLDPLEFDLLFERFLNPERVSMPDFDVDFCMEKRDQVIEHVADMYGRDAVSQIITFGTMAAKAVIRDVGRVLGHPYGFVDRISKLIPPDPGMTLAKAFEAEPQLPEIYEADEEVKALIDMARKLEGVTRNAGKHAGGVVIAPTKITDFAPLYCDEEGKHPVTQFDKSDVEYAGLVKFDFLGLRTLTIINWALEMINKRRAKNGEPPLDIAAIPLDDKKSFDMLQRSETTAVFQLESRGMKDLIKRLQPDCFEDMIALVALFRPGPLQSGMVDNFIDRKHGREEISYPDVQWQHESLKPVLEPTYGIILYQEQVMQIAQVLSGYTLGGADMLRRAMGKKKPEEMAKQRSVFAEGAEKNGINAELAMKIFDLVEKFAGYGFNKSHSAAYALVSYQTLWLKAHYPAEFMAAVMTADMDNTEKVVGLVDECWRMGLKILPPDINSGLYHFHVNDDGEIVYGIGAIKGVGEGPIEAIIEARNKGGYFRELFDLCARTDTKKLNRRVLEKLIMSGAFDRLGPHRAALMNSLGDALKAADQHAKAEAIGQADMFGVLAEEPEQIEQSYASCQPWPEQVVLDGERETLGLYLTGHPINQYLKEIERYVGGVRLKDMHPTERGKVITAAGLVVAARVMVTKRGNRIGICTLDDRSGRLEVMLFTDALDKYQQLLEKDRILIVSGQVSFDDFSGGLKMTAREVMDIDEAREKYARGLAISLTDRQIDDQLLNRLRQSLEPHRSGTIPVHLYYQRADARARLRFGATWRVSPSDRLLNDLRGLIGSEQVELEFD
How it was run: as §1

[5] = test system: Staphylococcus aureus MB6266 (MRSA COL); assay: Nargenicin antibacterial assay (MIC), S. aureus; type: cell-based; settings: * = some reduction of growth versus control at […]; for MIC: Staphylococcus aureus, MRSA, read-out: S. aureus COL (MIC), MHII broth + 50% human serum
[6] = test system: Escherichia coli MB5747 (LS 883, tolC); assay: microbe, parasite or virus in culture; type: cell-based; settings: * = some reduction of growth versus control at […]; for MIC: Escherichia coli, read-out: E. coli LS883 tolC (MIC), MHII broth
[7] = test system: Pseudomonas aeruginosa MB5890 (CB1101, efflux-deleted); assay: microbe, parasite or virus in culture; type: cell-based; settings: * = some reduction of growth versus control at […]; for MIC: Pseudomonas aeruginosa, read-out: P. aeruginosa MB5890 efflux-del (MIC), MHII broth
[8] = read-out: E. coli DnaE IC50 (converted)

| SMILES | MICs compared with nargenicin [1] | IC50 ([2]; S. aureus DnaE IC50) | MIC [3] | IC50 ([4]; E. coli DnaE IC50) | MIC [5] | MIC [6] | MIC [7] | IC50 [4, 8] | IC50 ([2]; read-out: S. aureus DnaE IC50 (converted)) | S. aureus DnaE IC50 [2] | S. pneumoniae MB2883 (MIC) ([3]; Isosensitest broth) | E. coli DnaE IC50 [4] | S. aureus COL (MIC) ([5]; MHII broth + 50% human serum) | E. coli LS883 tolC (MIC) ([6]; MHII broth) | P. aeruginosa MB5890 efflux-del (MIC) ([7]; MHII broth) |
| --- | --- | --- | --- | --- | --- | --- | --- | --- | --- | --- | --- | --- | --- | --- | --- |
| CO[C@H]1CC2C=C[C@H]3[C@H]4O[C@]2(/C(C)=C/[C@@H](C)[C@@H](C(C)O)OC1=O)[C@@H]3[C@H](O)[C@@H](C)[C@H]4OC(=O)c1cccn1C(=O)C(C)C (stereo partly shown) [Example 204] | equal to or better than nargenicin |  |  |  |  |  |  |  |  |  |  |  |  |  |  |
| CO[C@H]1C[C@H]2C=CC3C4[C@H](O)[C@@H](C)[C@@H](OC(=O)c5cc(-c6cccnc6)c[nH]5)[C@@H]3O[C@]42/C(C)=C/[C@@H](C)[C@@H]([C@@H](C)O)OC1=O [Example 164, (3R,4S,7S,8aS,11R,12R,13R,14R,14bS,E)-14-hydroxy-4-((R)-1-hydroxyethyl)-7-methoxy-1,3,13-trimethyl-6-oxo-3,4,6,7,8,8a,10a,11,12,13,14,14a-dodecahydro-11,14b-epoxynaphtho[2,1-e]oxecin-12-yl 4-(pyridin-3-yl)-1H-pyrrole-2-carboxylate] |  | 10.1 µM | 32 µg/mL (≈ 54 µM) | > 169 µM | > 128 µg/mL | 16 µg/mL (≈ 27 µM) | > 128 µg/mL |  |  |  |  |  |  |  |  |
| CO[C@H]1C[C@H]2C=C[C@H]3[C@H]4O[C@]2(/C(C)=C/[C@@H](C)[C@@H]([C@@H](C)OC(N)=O)OC1=O)[C@@H]3[C@H](OC(N)=O)[C@@H](C)[C@H]4OC(=O)c1ccc[nH]1 [Example 4] |  | 1.16 µM | > 128 µg/mL |  | > 128 µg/mL | > 128 µg/mL | > 128 µg/mL | > 166 µM |  |  |  |  |  |  |  |
| C=C1C[C@H]2[C@H]3O[C@]4(/C(C)=C/[C@@H](C)[C@@H]([C@@H](C)O)OC(=O)[C@@H](OC)C[C@@H]14)[C@@H]2[C@H](O)[C@@H](C)[C@H]3OC(=O)c1ccc[nH]1 [Example 199] |  | 0.0283 µM | > 128 µg/mL |  | 32 µg/mL | 16 µg/mL (≈ 30.2 µM) | > 128 µg/mL | 142 µM |  |  |  |  |  |  |  |
| CO[C@H]1C[C@H]2C=CC3C4[C@H](O)[C@@H](C)[C@@H](OC(=O)c5ccc[nH]5)[C@@H]3O[C@]42/C(C)=C/[C@@H](C)[C@@H]([C@@H](C)OC(=O)Nc2nnn[nH]2)OC1=O [Example 65] |  | < 0.00957 µM | > 128 µg/mL |  | 2 µg/mL | 2 µg/mL (≈ 3.19 µM) | 64 µg/mL (≈ 102 µM) | 16 µM |  |  |  |  |  |  |  |
| CO[C@H]1C[C@H]2C=C[C@H]3[C@H]4O[C@]2(/C(C)=C/[C@@H](C)[C@@H]([C@@H](C)O)OC1=O)[C@@H]3[C@H](O)C(C)[C@@H]4NCCN1CCCCC1.O=C(O)C(F)(F)F (stereo partly shown) [Example 156] |  |  | > 128 µg/mL | > 155 µM | > 128 µg/mL | > 128 µg/mL | > 128 µg/mL |  | 32.5 µM |  |  |  |  |  |  |
| CO[C@H]1C[C@H]2C=C[C@H]3[C@H]4O[C@]2(/C(C)=C/[C@@H](C)[C@@H]([C@@H](C)OC(=O)NCc2ccccc2)OC1=O)[C@@H]3[C@H](O)[C@@H](C)[C@H]4OC(=O)c1ccc[nH]1 [Example 10] |  | 0.0308 µM | > 128 µg/mL |  | 8 µg/mL | > 128 µg/mL | > 128 µg/mL | > 154 µM |  |  |  |  |  |  |  |
| CO[C@H]1C[C@H]2C=CC3C4[C@H](O)[C@@H](C)[C@@H](OC(=O)c5ccc[nH]5)[C@@H]3O[C@]42/C(C)=C/[C@@H](C)[C@@H]([C@@H](C)OC(=O)C(=O)OCCCN(C)C)OC1=O.O=C(O)C(F)(F)F [Example 206] |  | < 0.00763 µM | > 128 µg/mL |  | 4 µg/mL | 4 µg/mL | 64 µg/mL | 1.91 µM |  |  |  |  |  |  |  |
| CO[C@H]1C[C@H]2C=C[C@H]3[C@H]4O[C@]2(/C(C)=C/[C@@H](C)[C@@H]([C@@H](C)O)OC1=O)[C@@H]3[C@H](O)[C@@H](C)[C@H]4OC(=O)c1[nH]c(Br)c(Br)c1Br [Example 41, (3R,4S,7S,8aS,10aR,11R,12R,13R,14R,14aS,14bS,E)-14-hydroxy-4-((R)-1-hydroxyethyl)-7-methoxy-1,3,13-trimethyl-6-oxo-3,4,6,7,8,8a,10a,11,12,13,14,14a-dodecahydro-11,14b-epoxynaphtho[2,1-e]oxecin-12-yl3,4,5-tribromo-1H-pyrrole-2-carboxylate] |  | 4.12 µM | 8 µg/mL (≈ 10.6 µM) | 79.8 µM | > 128 µg/mL | > 128 µg/mL | > 128 µg/mL |  |  |  |  |  |  |  |  |
| CO[C@H]1C[C@H]2C(=O)C[C@H]3[C@H]4O[C@]2(/C(C)=C/[C@@H](C)[C@@H]([C@@H](C)O)OC1=O)[C@@H]3[C@H](O)[C@@H](C)[C@H]4OC(=O)c1ccc[nH]1 [Example 182] |  | 0.0376 µM | > 128 µg/mL |  | 32 µg/mL | 8 µg/mL (≈ 15 µM) | 32 µg/mL (≈ 60.2 µM) | > 188 µM |  |  |  |  |  |  |  |
| CO[C@H]1C[C@H]2C=CC3C4[C@H](O)[C@@H](C)[C@@H](OC(=O)c5ccc[nH]5)[C@@H]3O[C@]42/C(C)=C/[C@@H](C)[C@@H]([C@@H](C)OC(=O)C(=O)NC2CC2)OC1=O [Example 117] |  |  |  |  |  |  |  |  |  | 0.0007 µg/mL | 128 µg/mL | 11 µg/mL | ≤0.125 µg/mL | ≤0.125 µg/mL | 4 µg/mL |
| CO[C@H]1C[C@H]2C=C[C@H]3[C@H]4O[C@]2(/C(C)=C/[C@@H](C)[C@@H]([C@@H](C)OC(=O)N2CCOCC2)OC1=O)[C@@H]3[C@H](O)[C@@H](C)[C@H]4OC(=O)c1ccc[nH]1 [Example 20] |  | < 0.00954 µM | 32 µg/mL (≈ 50.9 µM) |  | 8 µg/mL | 8 µg/mL (≈ 12.7 µM) | > 128 µg/mL | > 159 µM |  |  |  |  |  |  |  |
| CO[C@H]1C[C@H]2C=C[C@H]3[C@H]4O[C@]2(/C(C)=C/[C@@H](C)[C@@H]([C@@H](C)OC(N)=O)OC1=O)[C@@H]3[C@H](O)[C@@H](C)[C@H]4OC(=O)c1ccc[nH]1 [Example 7] |  | < 0.0107 µM | > 128 µg/mL |  | 4 µg/mL | 2 µg/mL (≈ 3.58 µM) | 32 µg/mL (≈ 57.3 µM) | 53.7 µM |  |  |  |  |  |  |  |
| CO[C@H]1CC2C=C[C@H]3[C@H]4O[C@]2(/C(C)=C/[C@@H](C)[C@@H]([C@@H](C)OC(=O)OC2CCC(O)CC2)OC1=O)[C@@H]3[C@H](O)[C@@H](C)[C@H]4OC(=O)c1ccc[nH]1 (single isomer, unassigned) [Example 34] |  | 0.0106 µM | 64 µg/mL (≈ 97.3 µM) |  | 32 µg/mL | 32 µg/mL (≈ 48.7 µM) | > 128 µg/mL | 106 µM |  |  |  |  |  |  |  |
| CO[C@H]1C[C@H]2C=C[C@H]3[C@H]4O[C@]2(/C(C)=C/[C@@H](C)[C@@H]([C@@H](C)OC(=O)NC(C)(CO)CO)OC1=O)[C@@H]3[C@H](O)[C@@H](C)[C@H]4OC(=O)c1ccc[nH]1 [Example 21] |  | < 0.00928 µM | 128 µg/mL (≈ 198 µM) |  | 16 µg/mL | 8 µg/mL (≈ 12.4 µM) | 128 µg/mL (≈ 198 µM) | > 155 µM |  |  |  |  |  |  |  |
